Measured values taken from US20040037806A1, “Aldosterone blocker therapy to prevent or treat inflammation-related disorders” (Pharmacia Corporation, priority 2002, published 2004).
Entries after “also recorded” stand apart in the source; their conditions may differ.

Legend:
Assay type in all cases: in vivo, rat
[1] = system: Atrial natriuretic factor (ANP); assay: Assay C: ANP mRNA in left ventricle, TaqMan; settings: aldosterone+salt alone or with eplerenone 100 mg/kg/day; 7, 14, 30 days
Description: (§1) The procedure of Assay B was expanded upon in a further study. […] Myocardial tissue from animals in each treatment group was examined after 7, 14, or 30 days of treatment.
(§2) Potassium chloride supplementation was added to the saline solution in order to prevent the potential hypokalemia associated with aldosterone excess.
(§3) Treatment At the time of the surgery, an Alzet 2002 osmotic minipump (Alza Corp., Palo Alto, Calif.) containing either vehicle (9% ethanol/87% propylene glycol/4% dH2O) or 1.0 mg/mL d-aldosterone (Sigma Chemical, St. Louis, Mo.) was inserted subcutaneously at the nape of the neck. Aldosterone was administered at a dose of 0.75 µg/hour. […]
(§4) The fluorogenic 5′-nuclease assay (TaqMan PCR) using Applied Biosystems' 7700 Sequence Detection System (Applied Biosystems, Foster City, Calif.) allowed for real time detection/quantitation of a specific gene by monitoring the increase in fluorescence of a gene-specific, dye-labeled oligonucleotide probe. […] When the probe was annealed to the target gene, fluorescence of 6FAM was prevented by the close proximity of TAMRA. The exonuclease activity of Taq polymerase released the dyes from the oligonucleotide probe by displacing the probe from the target sequence resulting in fluorescence excitation in direct proportion to the amount of target message present. […]

[2] = system: Collagen I; assay: Assay C: Collagen I mRNA, TaqMan; settings: 30 days, compared to vehicle+salt controls
Description: as §1, §2, §3, §4

[3] = system: COX-2; assay: Assay C: COX-2 mRNA, TaqMan; settings: 7, 14, 30 days; aldosterone+salt alone or with eplerenone 100 mg/kg/day
Description: as §1, §2, §3, §4

[4] = system: osteopontin; assay: Assay C: Osteopontin mRNA, TaqMan; settings: 7, 14, 30 days; aldosterone+salt alone or with eplerenone 100 mg/kg/day
Description: as §1, §2, §3, §4

SMILES: COC(=O)[C@@H]1CC2=CC(=O)CC[C@]2(C)[C@@]23O[C@@H]2C[C@@]2(C)[C@@H](CC[C@@]24CCC(=O)O4)[C@H]13 [eplerenone]
- Atrial natiuretic peptide (ANP) mRNA levels [1]: significantly reduced by eplerenone after 30 days of treatment but not after 14 days
- Collagen type-I message [2]: modest increase
- COX-2 mRNA expression in myocardium [3]: inhibition of early time-course expression of myocardial COX-2; also recorded: significantly reduced
- Osteopontin mRNA expression in myocardium [4]: significantly reduced; also recorded: inhibition of early time-course expression of myocardial osteopontin

SMILES: C[C@]12CCC(=O)C=C1CC[C@@H]1[C@@H]2[C@@H](O)C[C@]2(C=O)[C@@H](C(=O)CO)CC[C@@H]12 [aldosterone]
- Atrial natiuretic peptide (ANP) mRNA levels [1]: Significant elevations
- Collagen type-I message [2]: modest increase
- COX-2 mRNA expression in myocardium [3]: significantly increased
- Osteopontin mRNA expression in myocardium [4]: markedly upregulated
